Values of other authors, collected in patent US20030087306A1, “Methods for identifying novel multimeric agents that modulate receptors” (priority 1998, published 2003).
Where a name gives a salt, the structure may show the parent alone. Read-outs that look alike come from different tables or passages of the source.

How the values were obtained:
human coronary artery = conditions: for effectiveness in causing contraction of human isolated coronary artery: endothelium-denuded segments, in vitro
5-HT1D receptor [1] = conditions: for potency (pD2 range): rabbit saphenous vein rings
β2-adrenergic receptor = β2-adrenergic receptor (Homo sapiens, UniProt P07550); conditions: for duration of action / onset of action (in words): human, in vivo
5-HT1 receptor = target: T1, 5-HT1 receptor (Cricetulus griseus, UniProt P46636); conditions: luciferase expression, CHO cells
T1 construct: These CHO cells are screened for endogenous G protein-coupled receptors; endogenous in cells; host or cells: CHO cells with a cAMP-responsive luciferase reporter

AT1 receptor = target: T2, AT1 receptor (Homo sapiens, UniProt P30556)
T2 sequence (P30556 1-359): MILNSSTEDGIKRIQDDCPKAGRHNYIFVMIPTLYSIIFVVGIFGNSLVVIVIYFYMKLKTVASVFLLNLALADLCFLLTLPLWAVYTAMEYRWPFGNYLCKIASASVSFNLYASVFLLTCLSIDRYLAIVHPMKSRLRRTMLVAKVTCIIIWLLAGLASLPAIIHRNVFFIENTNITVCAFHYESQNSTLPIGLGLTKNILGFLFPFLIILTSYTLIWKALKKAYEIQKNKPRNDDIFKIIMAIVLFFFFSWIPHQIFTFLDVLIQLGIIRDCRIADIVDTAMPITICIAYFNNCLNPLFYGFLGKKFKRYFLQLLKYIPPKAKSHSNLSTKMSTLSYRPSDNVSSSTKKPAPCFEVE

5-HT1F receptors = target: T3, 5-HT1F receptors (Homo sapiens, UniProt P30939)
T3 construct: expressed in transfected cells; host or cells: NIH-3T3 cells
T3 sequence (P30939 1-366): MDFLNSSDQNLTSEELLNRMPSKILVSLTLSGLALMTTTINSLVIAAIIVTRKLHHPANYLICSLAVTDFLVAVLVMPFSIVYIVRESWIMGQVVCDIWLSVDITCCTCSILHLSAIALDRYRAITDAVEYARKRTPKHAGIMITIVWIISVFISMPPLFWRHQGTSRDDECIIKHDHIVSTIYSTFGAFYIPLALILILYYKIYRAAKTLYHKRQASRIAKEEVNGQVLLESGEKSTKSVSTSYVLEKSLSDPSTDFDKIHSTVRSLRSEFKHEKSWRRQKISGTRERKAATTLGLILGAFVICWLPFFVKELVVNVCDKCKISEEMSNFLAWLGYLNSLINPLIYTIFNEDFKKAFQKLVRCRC

[2] = system: angiotensin II receptor sites; conditions: rat adrenal cortical membranes and cultured rat smooth muscle cells
AT2 receptor = target: T4, AT2 receptor (Homo sapiens, UniProt P50052)
T4 sequence (P50052 1-363): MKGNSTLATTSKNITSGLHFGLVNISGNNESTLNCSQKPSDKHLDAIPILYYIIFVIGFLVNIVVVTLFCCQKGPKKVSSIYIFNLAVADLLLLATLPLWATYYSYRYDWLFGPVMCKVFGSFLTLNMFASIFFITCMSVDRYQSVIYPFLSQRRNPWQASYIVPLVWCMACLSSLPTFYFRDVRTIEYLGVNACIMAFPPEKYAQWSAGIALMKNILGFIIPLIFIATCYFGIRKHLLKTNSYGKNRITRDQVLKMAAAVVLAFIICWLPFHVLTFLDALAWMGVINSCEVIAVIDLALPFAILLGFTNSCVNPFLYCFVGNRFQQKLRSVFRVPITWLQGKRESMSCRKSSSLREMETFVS

5-HT1D receptor [3] = target: T5, 5-HT1D receptor; conditions: forskolin-stimulated adenylyl cyclase, guinea-pig substantia nigra
T5 construct: rows headed: efficacy compared to 5-HT; other: forskolin-stimulated adenylyl cyclase, guinea-pig substantia nigra

5-HT1B binding site = 5-HT1B binding site (Rattus norvegicus, UniProt P28564)
5-HT1D receptor [4] = conditions: K+-evoked [3H]-5-HT release, guinea-pig frontal cortex slices
5-HT1A binding site = target: T6, 5-HT1A binding site (Homo sapiens, UniProt P08908)
T6 sequence (P08908 1-422): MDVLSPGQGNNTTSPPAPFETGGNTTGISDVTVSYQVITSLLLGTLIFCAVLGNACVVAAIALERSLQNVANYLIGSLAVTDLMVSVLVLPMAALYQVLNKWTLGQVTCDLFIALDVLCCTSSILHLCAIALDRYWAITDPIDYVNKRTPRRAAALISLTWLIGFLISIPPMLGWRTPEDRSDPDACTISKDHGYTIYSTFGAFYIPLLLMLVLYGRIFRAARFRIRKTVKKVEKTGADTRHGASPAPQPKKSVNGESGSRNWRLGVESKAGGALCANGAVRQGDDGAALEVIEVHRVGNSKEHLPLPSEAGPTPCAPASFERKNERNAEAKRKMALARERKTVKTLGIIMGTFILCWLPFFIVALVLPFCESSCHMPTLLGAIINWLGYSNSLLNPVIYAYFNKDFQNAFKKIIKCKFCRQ

5-HT1E binding site = 5-HT1E binding site (Homo sapiens, UniProt P28566)
5-HT2 binding site = 5-HT2 binding site (Homo sapiens, UniProt P28223)
5-HT1C binding site = target: T7, 5-HT1C binding site (Homo sapiens, UniProt P28335)
T7 sequence (P28335 33-458): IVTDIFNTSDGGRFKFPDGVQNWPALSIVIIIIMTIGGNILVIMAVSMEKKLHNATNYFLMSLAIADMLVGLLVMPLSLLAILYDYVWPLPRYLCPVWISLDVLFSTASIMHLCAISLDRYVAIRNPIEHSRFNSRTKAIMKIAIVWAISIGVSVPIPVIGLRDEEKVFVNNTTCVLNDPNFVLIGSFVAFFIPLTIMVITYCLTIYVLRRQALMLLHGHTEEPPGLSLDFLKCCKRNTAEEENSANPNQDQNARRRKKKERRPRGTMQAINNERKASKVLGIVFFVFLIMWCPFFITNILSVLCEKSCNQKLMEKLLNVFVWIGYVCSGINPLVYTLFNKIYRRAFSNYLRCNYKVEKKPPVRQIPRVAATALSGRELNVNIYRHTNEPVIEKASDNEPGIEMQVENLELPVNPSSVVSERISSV

neuropeptide release = conditions: trigeminal ganglion stimulation in cats
[5] = system: cholinergic receptors on bronchial smooth muscle

Chain of β2-adrenergic receptor (P07550 whole entry): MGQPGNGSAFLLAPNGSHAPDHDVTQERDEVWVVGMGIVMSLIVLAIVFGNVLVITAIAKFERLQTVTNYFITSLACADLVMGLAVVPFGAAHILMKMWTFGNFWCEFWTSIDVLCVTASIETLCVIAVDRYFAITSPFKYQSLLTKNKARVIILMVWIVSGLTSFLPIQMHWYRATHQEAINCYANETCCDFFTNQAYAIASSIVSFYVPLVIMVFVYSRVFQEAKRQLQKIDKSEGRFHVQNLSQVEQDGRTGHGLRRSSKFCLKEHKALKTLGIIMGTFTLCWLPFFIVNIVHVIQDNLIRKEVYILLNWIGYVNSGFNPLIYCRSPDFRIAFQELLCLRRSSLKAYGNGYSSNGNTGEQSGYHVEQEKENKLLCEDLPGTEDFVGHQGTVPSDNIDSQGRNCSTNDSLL
T1 sequence (P46636 whole entry): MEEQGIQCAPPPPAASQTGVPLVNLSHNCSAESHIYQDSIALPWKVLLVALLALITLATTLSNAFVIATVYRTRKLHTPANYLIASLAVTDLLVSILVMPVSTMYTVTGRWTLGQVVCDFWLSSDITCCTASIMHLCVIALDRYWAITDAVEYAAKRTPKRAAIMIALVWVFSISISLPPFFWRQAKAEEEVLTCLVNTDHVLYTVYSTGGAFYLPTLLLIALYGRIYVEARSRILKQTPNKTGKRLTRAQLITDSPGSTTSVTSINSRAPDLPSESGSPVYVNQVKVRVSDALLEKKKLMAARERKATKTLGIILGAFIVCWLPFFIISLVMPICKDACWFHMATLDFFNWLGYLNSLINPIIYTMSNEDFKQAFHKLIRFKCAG
Chain of 5-HT1B binding site (P28564 whole entry): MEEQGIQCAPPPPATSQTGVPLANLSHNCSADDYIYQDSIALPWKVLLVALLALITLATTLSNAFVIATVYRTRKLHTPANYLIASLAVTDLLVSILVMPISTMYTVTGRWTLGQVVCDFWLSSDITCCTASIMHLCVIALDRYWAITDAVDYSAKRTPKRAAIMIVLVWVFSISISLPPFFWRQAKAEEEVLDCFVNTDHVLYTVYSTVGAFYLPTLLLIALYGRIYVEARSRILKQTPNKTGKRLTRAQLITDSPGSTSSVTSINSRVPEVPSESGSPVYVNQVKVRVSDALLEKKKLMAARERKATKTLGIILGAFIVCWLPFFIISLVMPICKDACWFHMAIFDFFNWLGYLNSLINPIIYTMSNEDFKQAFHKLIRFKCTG
Chain of 5-HT1E binding site (P28566 whole entry): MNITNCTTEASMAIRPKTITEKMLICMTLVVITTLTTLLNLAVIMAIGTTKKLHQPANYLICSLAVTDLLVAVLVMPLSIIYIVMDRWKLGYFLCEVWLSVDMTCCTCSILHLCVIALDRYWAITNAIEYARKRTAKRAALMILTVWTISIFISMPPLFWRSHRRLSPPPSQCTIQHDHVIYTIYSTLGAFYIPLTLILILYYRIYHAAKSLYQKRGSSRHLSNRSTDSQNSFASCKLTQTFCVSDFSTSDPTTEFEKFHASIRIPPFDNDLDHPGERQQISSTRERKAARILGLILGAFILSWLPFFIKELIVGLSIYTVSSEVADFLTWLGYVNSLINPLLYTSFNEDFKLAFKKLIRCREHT
Chain of 5-HT2 binding site (P28223 whole entry): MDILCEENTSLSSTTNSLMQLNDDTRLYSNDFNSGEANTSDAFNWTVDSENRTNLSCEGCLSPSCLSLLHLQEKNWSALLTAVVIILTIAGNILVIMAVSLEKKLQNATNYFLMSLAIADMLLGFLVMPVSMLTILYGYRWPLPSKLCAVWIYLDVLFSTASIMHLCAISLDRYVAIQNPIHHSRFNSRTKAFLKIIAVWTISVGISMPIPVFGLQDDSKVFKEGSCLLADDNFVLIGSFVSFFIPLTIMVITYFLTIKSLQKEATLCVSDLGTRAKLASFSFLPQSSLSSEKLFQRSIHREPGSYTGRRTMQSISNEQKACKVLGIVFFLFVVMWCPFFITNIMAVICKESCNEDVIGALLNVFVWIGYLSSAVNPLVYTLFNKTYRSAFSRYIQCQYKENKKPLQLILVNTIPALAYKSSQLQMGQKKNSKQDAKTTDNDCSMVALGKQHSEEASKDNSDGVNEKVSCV

Compound: CNS(=O)(=O)Cc1ccc2[nH]cc(CCN(C)C)c2c1 [sumatriptan]
- effectiveness in causing contraction of human isolated coronary artery (human coronary artery): significantly less efficacious than 5-HT
- affinity (pIC50) (5-HT1D binding site): 8.22
- efficacy, maximal contractile response (Emax) (5-HT1D receptor [1]; compared to 5-HT and 5-CT): significantly greater

Compound: CCC(NC(C)C)C(O)c1ccc(O)c2[nH]c(=O)ccc12 (centres unmarked) [Procaterol]
- duration of action (β2-adrenergic receptor): about 5 hours
- onset of action (in words) (β2-adrenergic receptor): rapid onset of action

Compound: CC(C)(C)NCC(O)COc1cccc2[nH]c(C#N)cc12 (centres unmarked) [cyanopindolol]
- reversal of the response to 5-HT (5-HT1 receptor): reversed

Compound: Cc1cc(Cn2cnc3c2CC(C(=O)O)N(C(=O)C(c2ccccc2)c2ccccc2)C3)ccc1N (centres unmarked) [PD 123177]
- affinity (AT1 receptor; AT1 receptor): low affinity

Compound: NCCc1c[nH]c2ccc(O)cc12 [Example 5-HT]
- receptor reserve (5-HT1F receptors; 5-HT-induced inhibition of FSCA): 90%
- receptor occupancy required for half-maximal response (5-HT1F receptors; NIH-3T3 cells): about 10%
- potency (pD2 range) (5-HT1D receptor [1]): 6.2-7.1

Compound: CC(Cc1ccc(O)cc1)NCC(O)c1cc(O)cc(O)c1 (centres unmarked) [Fenoterol]
- duration of action (β2-adrenergic receptor): 2 to 3 h
- onset of action (in words) (β2-adrenergic receptor): rapid onset

Compound: NCCc1c[nH]c2ccc(C(N)=O)cc12 [Example 5-CT, 5-carboxamidotryptamine]
- potency (pD2 range) (5-HT1D receptor [1]): 7.2-7.6

Compound: CCCCc1nc(Cl)c(CO)n1Cc1ccc(-c2ccccc2-c2nn[nH]n2)cc1 [losartan]
- inhibition of specific binding of 125I-angiotensin II [2]: inhibits the specific binding
- affinity (AT2 receptor): low affinity

Compound: CC(C)NCC(O)COc1cccc2[nH]ccc12 (centres unmarked) [pindolol]
- reversal of the response to 5-HT (5-HT1 receptor): reversed

Compound: CS(=O)(=O)Nc1ccc(Cc2noc(-c3ccc4[nH]cc(CCN)c4c3)n2)cc1 [L-694,247]
- pEC50 (5-HT1D receptor [3]): 9.1
- affinity (pIC50) (5-HT1B binding site): 9.08
- pEC50 (5-HT1D receptor [4]): 9.4
- pIC50 (5-HT1A binding site): 8.64
- pIC50 (5-HT1E binding site): 5.66
- pIC50 (5-HT2 binding site): 6.50
- affinity (pIC50) (5-HT1D binding site): 10.03
- pIC50 (5-HT1C binding site): 6.42

Compound: O=C(c1ccc(F)cc1)C1CCN(CCn2c(=O)[nH]c3ccccc3c2=O)CC1 [ketanserin]
- reversal of the response to 5-HT (5-HT1 receptor): not

Compound: c1ccc2c(c1)CC[C@H](CNCCCNC1=NCCCN1)O2 [alniditan, (−)—(R)-N-[3,4-dihydro-2H-1-benzopyran-2-ylmethyl-N′-(1,4,5,6-tetrahydro-2-pyrimidinyl)-1,3-propanediaminedihydrochloride]
- potency compared with sumatriptan (5-HT1-like receptor; anesthetized dogs): higher
- common carotid arterial blood flow (5-HT1-like receptor; anesthetized dogs, 0.63-80 μg/kg i.v.): reduces common carotid arterial blood flow
- effect on other cardiovascular variables (5-HT1-like receptor; coronary, mesenteric and renal arterial blood flow, vascular and airway resistance): comparatively little effect

Compound: CN(C)CCc1c[nH]c2ccc(C[C@H]3COC(=O)N3)cc12 [Zolmitriptan]
- neuropeptide release (neuropeptide release): reduces neuropeptide release

Compound: CN(C)CCc1c[nH]c2ccc(Cn3cncn3)cc12 [rizatriptan]
- maximum contractile response (human coronary artery; compared with sumatriptan): lower maximum contractile response
- effectiveness in causing contraction of human isolated coronary artery (human coronary artery): less effective than sumatriptan
- effectiveness in causing contraction of human isolated coronary artery (human coronary artery; listed as MK462): significantly less efficacious than 5-HT
- effectiveness in causing contraction of human isolated coronary artery (human coronary artery; listed as MK-462): significantly less effective than sumatriptan

Compound: angiotensin II
- selectivity for the AT subtypes (AT1 receptor; AT1 vs AT2): no selectivity

Compound: CC(C)[N+]1(C)[C@@H]2CC[C@H]1C[C@@H](OC(=O)C(CO)c1ccccc1)C2 (some centres unmarked) [Ipratropium]
- persistence of significant effects ([5]; after inhalation): more than 4 hours
- time over which maximal responses develop ([5]; after inhalation): 30 to 90 min
- duration of useful response ([5]; some asthmatic patients): up to 6 hours

Compound: CC(C)NCC(O)c1cc(O)cc(O)c1 (centres unmarked) [Metaproterenol]
- onset of action (in words) (β2-adrenergic receptor): within minutes
- duration of effect after inhalation (β2-adrenergic receptor): several hours
- duration of effects after oral administration (β2-adrenergic receptor; oral): 3 to 4 h

Compound: Cc1ccc(C(=O)Oc2ccc(C(O)CNC(C)(C)C)cc2OC(=O)c2ccc(C)cc2)cc1 (centres unmarked) [bitolterol]
- duration of effect after inhalation (β2-adrenergic receptor): 3 to 6 h
